Source: publication PMC8237267 (Journal of Medicinal Chemistry, 2021)

Columns and labels:
HDAC1 = target: T1, HDAC1 (Homo sapiens, UniProt Q13547); experiment: HDAC EMSA activity assay (Nanosyn); assay type: biochemical
T1 construct: The full-length human HDACs were recombinantly expressed and purified from SF9 insect cells; host or cells: SF9 insect cells
Protocol: (§1) The full-length human HDACs were recombinantly expressed and purified from SF9 insect cells. All compounds were serially prediluted in DMSO from a top concentration of 10 or 1 μM and introduced into the 384-well plates through an acoustic dispenser (Labcyte550) into the reaction buffer (100 mM HEPES, pH 7.5, 25 mM KCl, 0.1% BSA, 0.01% Triton X-100, and enzyme). The total concentration of DMSO was 1% in all wells. The deacetylation reaction was initiated by introduction of a FAM-labeled acetylated peptide substrate. The reaction was monitored through the change in the relative fluorescence intensity of the substrate and product peaks. The activity was determined as the product sum ratio (PSR): P/(S + P), where P = product peak height and S = substrate peak height. […] Inhibition curves (Pinh vs inhibitor concentration) were fitted by a four-parameter sigmoid dose–response model using XLfit software (IDBS) to determine the IC50 values.

HDAC10 = target: T2, HDAC10 (Homo sapiens, UniProt Q969S8); experiment: HDAC EMSA activity assay (Nanosyn); assay type: biochemical
T2 construct: The full-length human HDACs were recombinantly expressed and purified from SF9 insect cells; host or cells: SF9 insect cells
T2 sequence (Q969S8 whole entry): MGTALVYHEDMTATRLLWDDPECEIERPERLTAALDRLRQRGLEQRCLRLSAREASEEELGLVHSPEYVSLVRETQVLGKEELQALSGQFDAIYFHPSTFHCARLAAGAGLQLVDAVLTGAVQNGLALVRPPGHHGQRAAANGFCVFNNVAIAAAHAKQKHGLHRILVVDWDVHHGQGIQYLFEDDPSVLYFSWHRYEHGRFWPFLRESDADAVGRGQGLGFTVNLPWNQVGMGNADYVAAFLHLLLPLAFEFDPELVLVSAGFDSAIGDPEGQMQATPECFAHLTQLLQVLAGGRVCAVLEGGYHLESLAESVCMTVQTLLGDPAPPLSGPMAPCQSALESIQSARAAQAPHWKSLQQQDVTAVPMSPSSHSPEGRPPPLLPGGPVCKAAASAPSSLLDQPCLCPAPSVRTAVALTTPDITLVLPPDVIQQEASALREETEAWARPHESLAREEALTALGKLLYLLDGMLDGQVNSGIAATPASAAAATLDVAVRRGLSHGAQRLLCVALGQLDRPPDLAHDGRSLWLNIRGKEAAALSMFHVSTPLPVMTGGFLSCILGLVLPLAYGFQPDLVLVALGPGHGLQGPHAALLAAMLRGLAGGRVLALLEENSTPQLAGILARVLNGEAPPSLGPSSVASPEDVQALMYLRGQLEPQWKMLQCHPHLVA
Protocol: as §1

HDAC5 = target: T3, HDAC5 (Homo sapiens, UniProt Q9UQL6); experiment: HDAC EMSA activity assay (Nanosyn); assay type: biochemical
T3 construct: The full-length human HDACs were recombinantly expressed and purified from SF9 insect cells; host or cells: SF9 insect cells
T3 sequence (Q9UQL6 whole entry): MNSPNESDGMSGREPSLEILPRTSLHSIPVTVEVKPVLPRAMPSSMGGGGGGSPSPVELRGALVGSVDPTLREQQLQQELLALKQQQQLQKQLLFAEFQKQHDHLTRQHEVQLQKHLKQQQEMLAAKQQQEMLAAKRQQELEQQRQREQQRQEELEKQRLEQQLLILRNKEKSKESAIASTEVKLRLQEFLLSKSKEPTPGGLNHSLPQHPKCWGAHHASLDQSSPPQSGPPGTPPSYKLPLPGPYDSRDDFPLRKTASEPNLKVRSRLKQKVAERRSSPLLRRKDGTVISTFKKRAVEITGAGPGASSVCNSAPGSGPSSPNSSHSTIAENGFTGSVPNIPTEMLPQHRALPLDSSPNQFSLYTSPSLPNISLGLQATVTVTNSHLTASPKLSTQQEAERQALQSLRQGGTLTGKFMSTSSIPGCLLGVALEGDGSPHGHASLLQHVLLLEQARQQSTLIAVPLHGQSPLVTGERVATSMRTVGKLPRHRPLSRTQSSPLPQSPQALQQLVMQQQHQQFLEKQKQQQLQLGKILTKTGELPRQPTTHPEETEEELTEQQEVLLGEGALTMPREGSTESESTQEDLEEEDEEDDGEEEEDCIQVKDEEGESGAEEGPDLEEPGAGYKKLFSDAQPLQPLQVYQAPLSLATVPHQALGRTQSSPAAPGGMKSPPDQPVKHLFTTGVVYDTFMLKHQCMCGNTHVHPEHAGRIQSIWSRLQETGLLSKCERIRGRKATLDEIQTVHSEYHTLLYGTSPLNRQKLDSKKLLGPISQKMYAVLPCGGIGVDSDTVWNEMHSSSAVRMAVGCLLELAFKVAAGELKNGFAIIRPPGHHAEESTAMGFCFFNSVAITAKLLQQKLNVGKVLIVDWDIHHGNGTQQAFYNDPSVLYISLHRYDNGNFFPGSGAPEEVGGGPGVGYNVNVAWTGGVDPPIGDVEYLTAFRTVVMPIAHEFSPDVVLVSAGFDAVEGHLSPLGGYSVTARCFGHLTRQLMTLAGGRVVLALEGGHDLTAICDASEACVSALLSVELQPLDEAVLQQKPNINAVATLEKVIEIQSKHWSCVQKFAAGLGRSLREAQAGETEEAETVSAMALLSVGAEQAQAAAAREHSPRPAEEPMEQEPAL
Protocol: as §1

HDAC7 = target: T4, HDAC7 (Homo sapiens, UniProt Q8WUI4); experiment: HDAC EMSA activity assay (Nanosyn); assay type: biochemical
T4 construct: The full-length human HDACs were recombinantly expressed and purified from SF9 insect cells; host or cells: SF9 insect cells
T4 sequence (Q8WUI4 whole entry): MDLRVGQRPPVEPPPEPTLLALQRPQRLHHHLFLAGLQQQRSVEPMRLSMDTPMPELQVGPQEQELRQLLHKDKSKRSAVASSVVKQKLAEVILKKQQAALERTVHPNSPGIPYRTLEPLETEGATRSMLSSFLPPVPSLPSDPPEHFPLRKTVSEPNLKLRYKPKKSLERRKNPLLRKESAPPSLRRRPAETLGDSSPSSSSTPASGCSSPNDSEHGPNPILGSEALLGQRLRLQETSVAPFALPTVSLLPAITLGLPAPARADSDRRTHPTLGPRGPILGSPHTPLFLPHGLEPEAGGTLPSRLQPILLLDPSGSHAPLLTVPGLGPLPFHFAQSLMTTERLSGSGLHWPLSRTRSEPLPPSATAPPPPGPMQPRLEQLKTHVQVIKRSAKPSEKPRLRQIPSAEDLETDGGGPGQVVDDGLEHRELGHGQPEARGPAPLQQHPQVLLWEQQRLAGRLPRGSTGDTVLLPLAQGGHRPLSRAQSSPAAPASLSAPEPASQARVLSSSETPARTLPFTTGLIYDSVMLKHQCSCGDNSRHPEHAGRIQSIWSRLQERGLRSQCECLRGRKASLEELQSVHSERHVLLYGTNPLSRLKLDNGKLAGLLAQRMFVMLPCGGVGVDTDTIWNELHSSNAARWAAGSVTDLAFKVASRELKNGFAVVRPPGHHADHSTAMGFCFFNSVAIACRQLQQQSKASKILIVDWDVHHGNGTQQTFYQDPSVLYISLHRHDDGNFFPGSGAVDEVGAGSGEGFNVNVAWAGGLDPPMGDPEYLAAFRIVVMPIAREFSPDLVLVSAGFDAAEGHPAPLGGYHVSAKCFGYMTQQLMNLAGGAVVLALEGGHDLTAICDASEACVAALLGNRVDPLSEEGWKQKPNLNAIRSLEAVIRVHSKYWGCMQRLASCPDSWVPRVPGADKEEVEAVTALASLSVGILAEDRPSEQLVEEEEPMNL
Protocol: as §1

HDAC9 = target: T5, HDAC9 (Homo sapiens, UniProt Q9UKV0); experiment: HDAC EMSA activity assay (Nanosyn); assay type: biochemical
T5 construct: The full-length human HDACs were recombinantly expressed and purified from SF9 insect cells; host or cells: SF9 insect cells
T5 sequence (Q9UKV0 whole entry): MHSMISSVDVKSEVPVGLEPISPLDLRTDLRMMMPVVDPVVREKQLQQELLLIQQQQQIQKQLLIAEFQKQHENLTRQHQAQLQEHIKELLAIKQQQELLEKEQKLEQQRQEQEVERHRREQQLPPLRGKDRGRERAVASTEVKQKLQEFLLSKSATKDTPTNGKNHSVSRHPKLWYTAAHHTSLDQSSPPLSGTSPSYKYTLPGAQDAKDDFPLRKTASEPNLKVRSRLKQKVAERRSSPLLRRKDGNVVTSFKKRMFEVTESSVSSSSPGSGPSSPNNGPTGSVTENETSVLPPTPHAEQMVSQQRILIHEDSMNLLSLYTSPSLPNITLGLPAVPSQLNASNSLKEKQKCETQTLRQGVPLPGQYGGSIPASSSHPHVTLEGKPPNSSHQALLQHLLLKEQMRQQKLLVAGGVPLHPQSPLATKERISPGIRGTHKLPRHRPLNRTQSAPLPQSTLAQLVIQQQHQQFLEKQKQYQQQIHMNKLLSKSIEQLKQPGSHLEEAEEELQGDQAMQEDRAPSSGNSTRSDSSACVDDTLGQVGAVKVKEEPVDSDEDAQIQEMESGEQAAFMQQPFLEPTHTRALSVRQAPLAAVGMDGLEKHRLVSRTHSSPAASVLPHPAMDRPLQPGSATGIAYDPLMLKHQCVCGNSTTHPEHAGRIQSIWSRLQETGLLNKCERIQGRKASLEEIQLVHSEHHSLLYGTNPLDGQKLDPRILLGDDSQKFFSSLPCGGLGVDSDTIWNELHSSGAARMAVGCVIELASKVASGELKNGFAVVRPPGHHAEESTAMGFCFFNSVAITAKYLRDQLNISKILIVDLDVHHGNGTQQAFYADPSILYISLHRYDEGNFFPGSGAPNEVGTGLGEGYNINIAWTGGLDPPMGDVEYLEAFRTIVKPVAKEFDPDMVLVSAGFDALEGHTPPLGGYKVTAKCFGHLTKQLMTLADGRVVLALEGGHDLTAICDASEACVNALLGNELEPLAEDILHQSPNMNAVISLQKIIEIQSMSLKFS
Protocol: as §1

[1] = In vitro stability in mouse hepatocytes; assay type: in vitro ADME
Protocol: The inhibitors (and controls) were formulated to concentrations of 100 μM in 50% acetonitrile/50% water. The medium (William’s E Medium supplemented with GlutaMAX) and hepatocyte thawing medium were allowed to reach room temperature and the hepatocytes and thawing medium and centrifuged at 100 g for 10 min. The supernatant was removed, and hepatocytes resuspended in the incubation medium (∼1.5 × 10^6 cells/mL). The cells were diluted to 0.5 × 10^6 viable cells/mL. A volume of 198 μL of hepatocytes was transferred to a 96-well noncoated plate and incubated at 37 °C for 10 min. Following this, 2 μL of the 100 μM test compounds or positive control was transferred into respective wells to start the reaction. At different time points (0, 15, 30, 60, 90, and 120 min), 25 μL aliquots were mixed with 6 volumes (150 μL) of acetonitrile containing internal standard, IS (100 nM alprazolam, 200 nM labetalol, 200 nM caffeine, and 200 nM diclofenac) to terminate the reaction. Samples were vortexed for 5 min and centrifuged for 45 min at 3220g, diluted by ultrapure water, followed by LC/MS/MS analysis. The in vitro half-life (T1/2) was determined by regression analysis of the percent parent disappearance vs time curve (T1/2 = 0.693/k) using Microsoft Excel.

[2] = Stability in mouse plasma; assay type: in vitro ADME; details: read-out: Plasma stability t1/2
Protocol: The plasma stability of the compounds was evaluated in mouse plasma provided from Sigma-Aldrich, Oakville, Canada. The main stock solutions of the compounds were prepared at 10 mM in DMSO, which was diluted to 100 μM in 50% acetonitrile (ACN)/50% water. Aliquots of 356.5 μL of plasma proteins were placed in a heating block and allowed to equilibrate at 37 °C for 5 min. Then, 3.5 μL of 100 μM compound solutions were added to each vial (final concentration of 1 μM). Three quality control (QC) samples at 100, 500, and 1000 nM were prepared in 0.5% ACN. The vial contents were transferred in 50 μL aliquots at time points of 0.5, 5, 10, 20, 30, and 60 mi to a 96-well autosampler plate containing 150 μL of protein precipitation solution. Ice-cold ACN containing internals standards (100 nM glyburide) were used as the protein precipitation solution. After centrifugation at 4 °C, 5500 rpm for 15 min, the supernatant was diluted in MQ water, and injected into the LC/MS/MS for quantitative analysis.
The mobile phase consisted of (A) 0.1% (v/v) formic acid in Milli-Q water; (B) 0.1% (v/v) formic acid in acetonitrile. […] Peak areas were determined from extracted ion chromatograms. The in vitro half-life (t1/2) of parent compounds were determined by regression analysis of the percent parent disappearance vs time curve.

[3] = Permeability by lipid-PAMPA; assay type: in vitro ADME; details: lecithin/dodecane, PBS pH 7.4, 16 h
Protocol: A 1.8% solution (w/v) of lecithin in dodecane was added to each acceptor plate well (top), followed by application of the artificial membrane and addition of 300 μL of PBS (pH 7.4) solution to each well of the acceptor plate. Compounds were added to the donor plate and incubated at 25 °C, 60 rpm for 16 h. After incubation, aliquots of 50 μL from each acceptor well and donor plate were transferred into a 96-well plate, vortexed at 750 rpm for 100 s and centrifuged at 3220g for 20 min. Compound concentrations and effective permeability (Pe) were determined by LC/MS/MS.

[4] = In vivo PK study in CD-1 male mice; details: mouse, plasma, CD-1 mice, IP, 20 mg/kg
[5] = system: primary T-PLL patient samples; experiment: Ex vivo drug sensitivity (DSS) in primary T-PLL patient samples; assay type: cell-based, human; details: p = 0.0007, Wilcoxon test
Excerpt: Primary T-PLL cells were isolated from peripheral blood (PB) of 10 T-PLL patients. All patients were diagnosed according to WHO criteria based on clinical features, immunophenotyping (flow cytometry and histochemisty; including TCL1 expression), and FISH/karyotyping.[71],[72] Samples were obtained from patients under IRB-approved protocols following written informed consent according to the Declaration of Helsinki. Collection and use of patient material have been approved for research purpose by the ethics committee of the University Hospital of Cologne (EudraCT-Nr.: #2008-001421-34 and AZ11-319) and Helsinki (303/13/03/01/2011).
PB mononuclear cells (PBMCs) of T-PLL samples were obtained by density gradient centrifugation (Histopaque; Sigma-Aldrich). All drug screening in primary T-PLL patient samples were conducted as previously described.[34],[73]

[6] = read-out: Stability in mouse hepatocytes t1/2

T1 sequence (Q13547 whole entry): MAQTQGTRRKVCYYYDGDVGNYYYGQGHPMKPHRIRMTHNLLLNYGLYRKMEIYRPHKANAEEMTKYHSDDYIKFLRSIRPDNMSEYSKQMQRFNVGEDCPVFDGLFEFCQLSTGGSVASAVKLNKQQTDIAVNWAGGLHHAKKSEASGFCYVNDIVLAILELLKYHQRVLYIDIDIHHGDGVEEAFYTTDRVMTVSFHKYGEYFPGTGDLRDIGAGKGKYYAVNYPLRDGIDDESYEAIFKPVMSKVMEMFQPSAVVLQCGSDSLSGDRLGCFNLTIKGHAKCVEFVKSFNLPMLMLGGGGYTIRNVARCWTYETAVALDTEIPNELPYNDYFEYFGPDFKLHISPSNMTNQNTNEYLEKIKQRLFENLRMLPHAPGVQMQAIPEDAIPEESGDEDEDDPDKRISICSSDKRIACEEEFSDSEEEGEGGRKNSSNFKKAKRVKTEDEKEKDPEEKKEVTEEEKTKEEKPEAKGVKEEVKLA

Work on `O=C(NO)c1ccc(CN(C2CC2)S(=O)(=O)c2cc(F)c(F)c(F)c2F)cc1` [Compound 14, 4-(((N-Cyclopropyl-2,3,4,5-tetrafluorophenyl)sulfonamido)methyl)-N-hydroxybenzamide] yielded an IC50 (HDAC1) of over 1000 nM, an IC50 (HDAC10) of over 1000 nM and an IC50 (HDAC5) of over 1000 nM. The IC50 (HDAC7) was over 1000 nM, the IC50 (HDAC9) was over 1000 nM and the hepatocyte CLint at 2 h, 1 μM [1] was 37.6 ± 0.6 µL/min/1e6 cells. It also gave a half-life at 1 μM [1, 6] of 37 min, a half-life at 2 h, 1 μM [1, 6] of 36.9 ± 0.59 min and a half-life at 1 μM [2] of 41 min. The “PAMPA -Log Pe” value ([3]; listed as 14 (KT-531)) was 5.44 ± 0.06, the “PAMPA -Log Pe” value ([3]; listed as KT-531) was 5.44 and the Cmax at 24 h [4] was 493 ng/mL. The MRT at 24 h [4] was 126 ± 30 min, the AUC(0-t) at 24 h ([4]; read-out: In vivo AUClast (overall exposure)) was 1580 ng·h/mL and the half-life ([4]; read-out: In vivo t1/2) was 63 min. For the same compound, the “drug response (DSS) versus vorinostat (SAHA)” value [5] was “more potent drug response”.
